According to paper PMC7567103 (Nature Communications, 2020):

What was measured:
Type in all cases: cell-based
GHRHR N346A = molecular target: T1, GHRHR N346A (Homo sapiens, UniProt Q02643, N346A); test: cAMP accumulation, N346A; details: mean ± SEM, n ≥ 3
T1 construct: GHRHR(23-423)-; HA signal peptide (replaces native signal M1-G22) (N); expressed in transfected cells; host or cells: HEK 293T, pcDNA3.1, transient
Text: (§1) Fig. 2 Molecular recognition of GHRH by GHRHR and comparison of that with LA-PTH–PTH1R and GLP-1–GLP-1R. a Detailed interaction between GHRH and the TMD pocket of GHRHR with hydrogen bonds shown as dotted lines. b, c Pairwise comparison of GHRH bound to GHRHR with GLP-1 and LA-PTH in complex with their corresponding receptors, showing the relative positions of peptide ligands. Lime green, GHRHR; blue, GHRH; red, PTH1R and LA-PTH; purple, GLP-1R and GLP-1. d–f The effects of mutation in the ligand-binding pocket on cAMP accumulation. cAMP levels were measured in wild-type (WT) receptor and alanine mutants in ECL1, 2, and 3 (d), TM1, 2, and 3 (e), and TM5, 6, and 7 (f). cAMP signals were normalized to the maximum response of WT and concentration–response curves were analyzed using a three-parameter logistic equation. Data shown are means ± S.E.M. of at least three independent experiments (n = 3–5), conducted in triplicate. Source data are provided as a Source data file.
(§2) GHRH-stimulated cAMP accumulation was measured by a LANCE Ultra cAMP kit (PerkinElmer). […] After 1 h RT incubation, TR-FRET signals (excitation: 320 nm, emission: 615 and 665 nm) were measured by an EnVision (PerkinElmer).

GHRHR H210A = molecular target: T2, GHRHR H210A (Homo sapiens, UniProt Q02643, H210A); test: cAMP accumulation, H210A; details: mean ± SEM, n ≥ 3
T2 construct: GHRHR(23-423)-; HA signal peptide (replaces native signal M1-G22) (N); expressed in transfected cells; host or cells: HEK 293T, pcDNA3.1, transient
T2 sequence (Q02643 23-423 H210A): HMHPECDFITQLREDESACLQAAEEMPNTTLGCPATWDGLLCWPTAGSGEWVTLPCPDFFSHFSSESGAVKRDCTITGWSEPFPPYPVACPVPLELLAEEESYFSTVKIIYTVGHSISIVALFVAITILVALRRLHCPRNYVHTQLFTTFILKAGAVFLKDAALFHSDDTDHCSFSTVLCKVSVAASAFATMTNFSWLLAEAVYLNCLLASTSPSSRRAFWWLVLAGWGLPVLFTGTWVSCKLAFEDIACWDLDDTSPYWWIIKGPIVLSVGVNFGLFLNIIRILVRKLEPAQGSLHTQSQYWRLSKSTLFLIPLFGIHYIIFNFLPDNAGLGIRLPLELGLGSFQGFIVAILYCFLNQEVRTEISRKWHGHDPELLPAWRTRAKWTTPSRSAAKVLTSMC
Text: as §1, §2

[1] = molecular target: T3, GHRHR(23-405)-15AA-LgBiT-2MBP (Homo sapiens, UniProt Q02643); test: cAMP accumulation, construct GHRHR(23-405)-15AA-LgBiT-2MBP (Supplementary Fig. 2b); details: HEK 293T; mean ± SEM, n = 8-10
T3 construct: 24 h after transfection with GHRHR(23-423), GHRHR(23-405), GHRHR(23-405)-LgBiT-2MBP, or HA-Flag-GHRHR (WT and mutants); HA signal peptide (replaces native signal M1-G22) (N); expressed in transfected cells; host or cells: HEK 293 T
T3 sequence (Q02643 23-405): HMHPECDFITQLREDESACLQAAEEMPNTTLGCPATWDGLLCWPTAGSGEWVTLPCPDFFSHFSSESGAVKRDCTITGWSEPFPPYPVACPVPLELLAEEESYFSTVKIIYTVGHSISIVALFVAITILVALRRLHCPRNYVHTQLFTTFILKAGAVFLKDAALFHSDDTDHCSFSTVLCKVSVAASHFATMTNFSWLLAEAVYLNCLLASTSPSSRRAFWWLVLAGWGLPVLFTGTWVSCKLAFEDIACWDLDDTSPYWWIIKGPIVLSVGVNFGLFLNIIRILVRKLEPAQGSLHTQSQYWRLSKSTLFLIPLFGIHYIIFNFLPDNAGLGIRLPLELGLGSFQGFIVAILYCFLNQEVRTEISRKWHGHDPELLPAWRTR
Description: (§3) GHRH-stimulated cAMP accumulation was measured by a LANCE Ultra cAMP kit (PerkinElmer). Briefly, 24 h after transfection with GHRHR(23-423), GHRHR(23-405), GHRHR(23-405)-LgBiT-2MBP, or HA-Flag-GHRHR (WT and mutants), HEK 293 T cells (3000/well in 384-well white plates, PerkinElmer) were digested by 0.2% (w/v) EDTA and 5 μL stimulation buffer (HBSS supplemented with 5 mM HEPES, 0.5 mM IBMX, and 0.1% (w/v) BSA, pH 7.4). Different concentrations (5 μL) of GHRH were then added and the stimulation lasted for 30 min at RT. The reaction was stopped by adding 5 μL Eu-cAMP tracer and 5 μL ULight-anti-cAMP. After 1 h RT incubation, TR-FRET signals (excitation: 320 nm, emission: 615 and 665 nm) were measured by an EnVision (PerkinElmer).
(§4) 223 Supplementary Ta b l e 1. Effects of GHRH-mediated cAMP accumulation.
(§5) Receptor cAMP Cell surface expression Binding
(§6) pEC50 Emax (% WT) (% WT) pIC50 […]
(§7) 225 to determine pEC50 and Emax values. pEC50 is the negative logarithm of the molar
(§8) 226 concentration of agonist that induced half the maximal response. Cell surface […]
(§9) 228 Flag antibody (Sigma-Aldrich, 1:300); Donkey anti-Mouse Alexa Fluor 488-
(§10) 229 conjugated secondary antibody, (ThermoFisher Scientific, 1:1000)] on the […]
(§11) 231 Binding data were analyzed using a three-parameter logistic equation to […]
(§12) 234 determine statistical difference. *P<0.01; ND, not determined.

GHRHR D274A = molecular target: T4, GHRHR D274A (Homo sapiens, UniProt Q02643, D274A); test: cAMP accumulation, D274A; details: mean ± SEM, n ≥ 3
T4 construct: GHRHR(23-423)-; HA signal peptide (replaces native signal M1-G22) (N); expressed in transfected cells; host or cells: HEK 293T, pcDNA3.1, transient
T4 sequence (Q02643 23-423 D274A): as the sequence (Q02643 23-423 H210A) above, with A188H, D252A counted along it
Text: as §1, §2

GHRHR E361A = molecular target: T5, GHRHR E361A (Homo sapiens, UniProt Q02643, E361A); test: cAMP accumulation, E361A; details: mean ± SEM, n ≥ 3
T5 construct: GHRHR(23-423)-; HA signal peptide (replaces native signal M1-G22) (N); expressed in transfected cells; host or cells: HEK 293 T
T5 sequence (Q02643 23-423 E361A): as the sequence (Q02643 23-423 H210A) above, with A188H, E339A counted along it
Text: as §1, §2

GHRHR(23-405) = molecular target: T6, GHRHR(23-405) (Homo sapiens, UniProt Q02643); test: cAMP accumulation, construct GHRHR(23-405) (Supplementary Fig. 2b); details: HEK 293T; mean ± SEM, n = 8-10
T6 construct: 24 h after transfection with GHRHR(23-423), GHRHR(23-405), GHRHR(23-405)-LgBiT-2MBP, or HA-Flag-GHRHR (WT and mutants); HA signal peptide (replaces native signal M1-G22) (N); expressed in transfected cells; host or cells: HEK 293 T
Description: as §3, §4, §5, §6, §7, §8, §9, §10, §11, §12

GHRHR S209A = molecular target: T7, GHRHR S209A (Homo sapiens, UniProt Q02643, S209A); test: cAMP accumulation, S209A; details: mean ± SEM, n ≥ 3
T7 construct: GHRHR(23-423)-; HA signal peptide (replaces native signal M1-G22) (N); expressed in transfected cells; host or cells: HEK 293T, pcDNA3.1, transient
T7 sequence (Q02643 23-423 S209A): as the sequence (Q02643 23-423 H210A) above, with S187A, A188H counted along it
Text: as §1, §2

GHRHR(23-423) (WT) = molecular target: T8, GHRHR(23-423) (WT) (Homo sapiens, UniProt Q02643); test: cAMP accumulation, construct GHRHR(23-423) (WT) (Supplementary Fig. 2b); details: HEK 293T; mean ± SEM, n = 8-10
T8 construct: 24 h after transfection with GHRHR(23-423), GHRHR(23-405), GHRHR(23-405)-LgBiT-2MBP, or HA-Flag-GHRHR (WT and mutants); HA signal peptide (replaces native signal M1-G22) (N); expressed in transfected cells; host or cells: HEK 293 T
T8 sequence (Q02643 23-423): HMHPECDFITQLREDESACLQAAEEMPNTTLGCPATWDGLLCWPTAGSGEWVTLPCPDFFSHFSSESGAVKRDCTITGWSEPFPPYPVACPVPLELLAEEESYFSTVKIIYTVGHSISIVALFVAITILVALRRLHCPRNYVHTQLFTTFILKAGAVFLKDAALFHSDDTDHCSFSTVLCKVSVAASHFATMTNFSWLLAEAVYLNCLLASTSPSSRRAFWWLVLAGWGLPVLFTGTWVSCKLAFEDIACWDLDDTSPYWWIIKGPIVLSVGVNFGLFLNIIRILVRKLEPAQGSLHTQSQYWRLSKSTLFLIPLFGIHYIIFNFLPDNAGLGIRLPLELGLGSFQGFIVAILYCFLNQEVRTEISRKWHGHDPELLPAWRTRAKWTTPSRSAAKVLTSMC
Description: as §3, §4, §5, §6, §7, §8, §9, §10, §11, §12

T1 sequence (Q02643 23-423 N346A): as the sequence (Q02643 23-423 H210A) above, with A188H, N324A counted along it

Q: For `CC[C@H](C)[C@H](NC(=O)[C@H](C)NC(=O)[C@H](CC(=O)O)NC(=O)[C@H](C)NC(=O)[C@@H](N)Cc1ccc(O)cc1)C(=O)N[C@@H](Cc1ccccc1)C(=O)N[C@H](C(=O)N[C@@H](CC(N)=O)C(=O)N[C@@H](CO)C(=O)N[C@@H](Cc1ccc(O)cc1)C(=O)N[C@@H](CCCNC(=N)N)C(=O)N[C@@H](CCCCN)C(=O)N[C@H](C(=O)N[C@@H](CC(C)C)C(=O)NCC(=O)N[C@@H](CCC(N)=O)C(=O)N[C@@H](CC(C)C)C(=O)N[C@@H](CO)C(=O)N[C@@H](C)C(=O)N[C@@H](CCCNC(=N)N)C(=O)N[C@@H](CCCCN)C(=O)N[C@@H](CC(C)C)C(=O)N[C@@H](CC(C)C)C(=O)N[C@@H](CCC(N)=O)C(=O)N[C@@H](CC(=O)O)C(=O)N[C@H](C(=O)N[C@@H](CCSC)C(=O)N[C@@H](CO)C(=O)N[C@@H](CCCNC(=N)N)C(=O)N[C@@H](CCC(N)=O)C(=O)N[C@@H](CCC(N)=O)C(=O)NCC(=O)N[C@@H](CCC(=O)O)C(=O)N[C@@H](CO)C(=O)N[C@@H](CC(N)=O)C(=O)N[C@@H](CCC(N)=O)C(=O)N[C@@H](CCC(=O)O)C(=O)N[C@@H](CCCNC(=N)N)C(=O)NCC(=O)N[C@@H](C)C(=O)N[C@@H](CCCNC(=N)N)C(=O)N[C@@H](C)C(=O)N[C@@H](CCCNC(=N)N)C(=O)N[C@@H](CC(C)C)C(N)=O)[C@@H](C)CC)C(C)C)[C@@H](C)O` [GHRH, Growth hormone-releasing hormone], which EC50 (GHRHR N346A) is on record?
A: The EC50 was 1410 pM.

Q: What about the Emax (GHRHR N346A) of the same compound?
A: Its Emax is 101.21±3.69 % WT.

Q: And the EC50 (GHRHR H210A)?
A: The EC50 was 1000 pM.

Q: What about the Emax (GHRHR H210A) of the same compound?
A: The Emax was 99.66±1.10 % WT.

Q: What about the EC50 [1] of the same compound?
A: The EC50 was 2880 pM.

Q: And the Emax [1]?
A: The Emax was 78.82±10.52 % WT.

Q: And the EC50 (GHRHR D274A)?
A: The EC50 was 468 pM.

Q: And the Emax (GHRHR D274A)?
A: Its Emax is 99.78±2.32 % WT.

Q: And the EC50 (GHRHR E361A)?
A: The EC50 was 1050 pM.

Q: And the Emax (GHRHR E361A)?
A: Its Emax is 18.75±4.38 % WT.

Q: What about the EC50 (GHRHR(23-405)) of the same compound?
A: Its EC50 is 871 pM.

Q: And the Emax (GHRHR(23-405))?
A: Its Emax is 120.55±1.97 % WT.

Q: And the EC50 (GHRHR S209A)?
A: The EC50 was 110 pM.

Q: And the Emax (GHRHR S209A)?
A: Its Emax is 100.52±0.43 % WT.

Q: And the EC50 (GHRHR(23-423) (WT))?
A: Its EC50 is 631 pM.

Q: What about the Emax (GHRHR(23-423) (WT)) of the same compound?
A: Its Emax is 100 % WT.
